Test results as given in the OligoGym collection.
These antisense oligonucleotides have a phosphorothioate backbone; sugars and methylation of C are not fully specified.

The sequences below were run against AKT3. Settings: ASO.
Further: test concentration or dose not given here.

Going from TAGTATCTGTCTCAGATG to GGTTTAAGAGGAGGTACA, the remaining target (mRNA or protein) (fraction of control) rises from 0.7 to no less than 1.

Compared with GTAATAGTCTGAGCTGTA, GAGGAAATTTAATGTCTT is higher in remaining target (mRNA or protein) (fraction of control): 0.88 for the first, no less than 1 for the second.

First: AACTGTGTCTCATAATTT
Second: CAACCCCTAGGCCCCACC
The remaining target (mRNA or protein) (fraction of control) of the first is higher: no less than 1 for the first, 0.16 for the second.

First: AAGTTTCTCATGGTCCTG
Second: TTTCCTCTGGAGTATCTA
The remaining target (mRNA or protein) (fraction of control) of the first is lower: 0.43 for the first, no less than 1 for the second.

Going from TTTGCATCTGAAGAGAGT to GTTGTAGAGGCATCCATC, the remaining target (mRNA or protein) (fraction of control) rises from 0.77 to no less than 1.

First: TCCCCTCTTCTGAACCCA
Second: GCGTTTATTTGGATCCTT
The remaining target (mRNA or protein) (fraction of control) of the first is lower: 0.55 for the first, no less than 1 for the second.

Compared with ACTGAAAAGTTGTTGAGG, ATCAAGAGCCCTGAAAGC is lower in remaining target (mRNA or protein) (fraction of control): no less than 1 for the first, 0.29 for the second.

First: TTGGCTTTGGTCGTTCTG
Second: TTCCCTTTCCTCTGGAGT
The remaining target (mRNA or protein) (fraction of control) of the first is higher: no less than 1 for the first, 0.65 for the second.

Compared with TACTCCAGAGAAGAAACT, TCATTAACTGGCATTTTG is higher in remaining target (mRNA or protein) (fraction of control): 0.85 for the first, no less than 1 for the second.

TTTGCCACTGAAAAGTTG and TAATTTCTTTTGCGTCAT cannot be ordered by remaining target (mRNA or protein) (fraction of control): no less than 1 for the first, no less than 1 for the second.

Compared with CTCCACCAAGGCGTTTAT, AATCCACATCTTGAGGTT is higher in remaining target (mRNA or protein) (fraction of control): 0.12 for the first, no less than 1 for the second.

First: GGAAGTATCTTGGCCTCC
Second: TTGGACTACAATTCATTC
The remaining target (mRNA or protein) (fraction of control) of the first is higher: no less than 1 for the first, 0.72 for the second.

What follows are sequences tested against E2F1. Settings: ASO.

First: GATTCTGGGAGCAGGCACTG
Second: CTCCCTCACTTTCCCAATAA
The remaining target (mRNA or protein) (fraction of control) of the first is higher: 0.79 for the first, 0.71 for the second.

Going from TGCACACACAGAGGTGTATG to ATGAGCTGGATGCCCTCAAG, the remaining target (mRNA or protein) (fraction of control) rises from 0.27 to 0.56.

First: AGAAGTCCTCCCGCACATGC
Second: TGTTAGGAAGCAAATCAAAG
The remaining target (mRNA or protein) (fraction of control) of the first is lower: 0.51 for the first, 0.74 for the second.

Compared with TGAAAGTTCTCCGAAGAGTC, TTTGATCACCATAACCATCT is lower in remaining target (mRNA or protein) (fraction of control): 0.56 for the first, 0.08 for the second.

Going from CACAGGAAAACATCGATCGG to TACTCTGGAAACCCTGGTCC, the remaining target (mRNA or protein) (fraction of control) falls from 0.9 to 0.75.

Going from TCCTGCAGCTGTCGGAGGTC to TCAGCCGAGTGGCTCAGCAG, the remaining target (mRNA or protein) (fraction of control) rises from 0.8 to 0.91.

First: CCCATGGCTGTCAGTCAGTC
Second: CCGCTGCCTGCAAAGTCCCG
The remaining target (mRNA or protein) (fraction of control) of the first is higher: no less than 1 for the first, 0.92 for the second.

First: AGGAAGCGCTTGGTGGTCAG
Second: CAGCTGCTGCTCGCTCTCCT
The remaining target (mRNA or protein) (fraction of control) of the first is higher: 0.72 for the first, 0.63 for the second.

Going from GGTCCCTCCAAGCCCTGTCA to AGGGACCCCTGCCCTTGCTC, the remaining target (mRNA or protein) (fraction of control) rises from 0.2 to 0.23.

Compared with ACACACACATGCTCACACAC, TTTAACGTCATCAAAATATT is higher in remaining target (mRNA or protein) (fraction of control): 0.56 for the first, 0.93 for the second.

Going from TGGCAGAGTCAGTGGCCCTG to TATTAAAACCAAAGCAGGAG, the remaining target (mRNA or protein) (fraction of control) falls from 0.94 to 0.69.

Compared with CTGCAATGCTACGAAGGTCC, CGATCGGGCCTTGTTTGCTC is higher in remaining target (mRNA or protein) (fraction of control): 0.26 for the first, 0.72 for the second.

Compared with GGCCGAAAGTGCAGTTAGAG, AAGTCCCGGCCACGGAATTC is lower in remaining target (mRNA or protein) (fraction of control): no less than 1 for the first, 0.87 for the second.

Compared with TAGCCAGACCCCAGAGCTAG, GCCACTGGATGTGGTTCTTG is higher in remaining target (mRNA or protein) (fraction of control): 0.46 for the first, 0.94 for the second.

Going from CTTCATTCCCCGGTACATGC to CACCCAGGCCTCAGTTCCTT, the remaining target (mRNA or protein) (fraction of control) rises from 0.72 to 0.92.

Compared with CCTCGGCGAGGGCTCGATCC, GCGGCCCGGGTGACAGGCGG is lower in remaining target (mRNA or protein) (fraction of control): 0.8 for the first, 0.32 for the second.

Compared with CACCGTCCTACACGCCCAGC, GGGAGATGATGGTGGTGGTG is higher in remaining target (mRNA or protein) (fraction of control): 0.44 for the first, no less than 1 for the second.

Going from GAGGAGGCCGGAGAAGTCCT to AAGCCTCCCCACCTGGCCTG, the remaining target (mRNA or protein) (fraction of control) falls from 0.75 to 0.28.

Going from GTGACACTATGGTGGCAGAG to GAGTCGGCCGCCACCAGCGG, the remaining target (mRNA or protein) (fraction of control) falls from 0.75 to 0.27.

Compared with GGCTGCCCATCCGGGACAAC, ACACCACACAGACTCCTTCC is higher in remaining target (mRNA or protein) (fraction of control): 0.53 for the first, 0.6 for the second.

Compared with AAGCCCTGTCAGAAATCCAG, GGGCCGGTGGGAGCCGGCGG is lower in remaining target (mRNA or protein) (fraction of control): 0.58 for the first, 0.37 for the second.

Compared with ATGTCATAGATGCGCCGCTT, GCTCCAGGCTGAGTAGAGAC is lower in remaining target (mRNA or protein) (fraction of control): 0.77 for the first, 0.73 for the second.

Compared with AACCCCACACCCCTCCTCCC, AACCTTTAAGACAGAAGTGC is lower in remaining target (mRNA or protein) (fraction of control): 0.86 for the first, 0.74 for the second.

Compared with CCACTCACCTCTCCCATCTC, AAGTGGTAGTCGAGGGCCTC is higher in remaining target (mRNA or protein) (fraction of control): 0.72 for the first, 0.77 for the second.

Going from GGTATAAATTAAATGTTTCC to GCCGACGCCCACTGTGGTGT, the remaining target (mRNA or protein) (fraction of control) falls from 0.62 to 0.45.

Going from GGAGGACGGCCAGGGACAGG to CACCTTTTCCTGGATGGCGG, the remaining target (mRNA or protein) (fraction of control) falls from 0.7 to 0.47.

Compared with GGTCCTGGGTCAACCCCTCA, GTGGTCAGATTCAGTGAGGT is lower in remaining target (mRNA or protein) (fraction of control): 0.62 for the first, 0.43 for the second.

Compared with CGCGGCGGAGATGATGACGA, TTGCTGATTCCCCAGGCTCA is lower in remaining target (mRNA or protein) (fraction of control): no less than 1 for the first, 0.36 for the second.

Going from CAGGCGGCGGCGGCGGCGCG to GACCACAGGGTCTGGGCTGG, the remaining target (mRNA or protein) (fraction of control) falls from 0.82 to 0.62.

Compared with ACCTCGGCAGCCCAGTTCAG, GCCCACTGCTCTCGGCCAGG is lower in remaining target (mRNA or protein) (fraction of control): no less than 1 for the first, 0.4 for the second.

Compared with GGACTCATGCACACACATGT, GCCTTGTGGGACCCCACGAG is higher in remaining target (mRNA or protein) (fraction of control): 0.16 for the first, 0.83 for the second.

Going from CGGCGGGCGGCCGAGCGCGG to TGGAGAGGGCCCACCCCACC, the remaining target (mRNA or protein) (fraction of control) falls from 0.83 to 0.62.

Going from GTGTGGGTGTAGGCTGCATG to GCCAGGCGCTGGCTGTCAGT, the remaining target (mRNA or protein) (fraction of control) falls from 0.76 to 0.69.

Compared with ACCTACGGTCTCCTCAGGGC, GAGGCCTCGATAAATAAATA is higher in remaining target (mRNA or protein) (fraction of control): 0.21 for the first, 0.94 for the second.

Going from GGTCCAGCCTCCGCTTCACC to CGAGCAGGGCCTCCAGCGCC, the remaining target (mRNA or protein) (fraction of control) rises from 0.36 to 0.9.

First: CGCAGCTGCGTAGTACAGAT
Second: AGGTCTCTGATGCCCTCGCC
The remaining target (mRNA or protein) (fraction of control) of the first is higher: no less than 1 for the first, 0.53 for the second.

First: GGCCATGACGCTCACGGCCC
Second: GGCCGCGGCGCACTGGGTGT
The remaining target (mRNA or protein) (fraction of control) of the first is lower: 0.76 for the first, 0.79 for the second.

Going from GAACTCCTCAGGGAGGAGGC to GGCTTGCTCAGCCTCCTAGC, the remaining target (mRNA or protein) (fraction of control) falls from 0.59 to 0.17.

First: CTCAGAAGTGACCTCCTGGG
Second: GGACTTCTTGGCAATGAGCT
The remaining target (mRNA or protein) (fraction of control) of the first is higher: 0.73 for the first, 0.65 for the second.

Compared with TCTGCGAGGAGTCGAGCAGC, GCAGGCGCTTCAGACACTGC is lower in remaining target (mRNA or protein) (fraction of control): 0.79 for the first, 0.3 for the second.

Each sequence was assayed against GNA13. Settings: ASO.

Going from GCTGAAAACCCGGTTATT to AGTGGTGAAGTGGTGGTA, the remaining target (mRNA or protein) (fraction of control) falls from 0.65 to 0.43.

First: TAAGGGCTTCTGTTGCTG
Second: GTCGATCTCCTTGGACTT
The remaining target (mRNA or protein) (fraction of control) of the first is lower: 0.55 for the first, 0.65 for the second.

Going from CAAATCTTGGCGATGAGT to ATATGAAGCTTCTCTCGA, the remaining target (mRNA or protein) (fraction of control) rises from 0.31 to 0.42.

Compared with GCCCGGGTATCAAACGAC, GACCGCGACGGCAGGAAG is higher in remaining target (mRNA or protein) (fraction of control): 0.26 for the first, no less than 1 for the second.

Going from CAGCTTTCAGCCACAAAC to GAGCATCAACCAGCACCC, the remaining target (mRNA or protein) (fraction of control) falls from 0.99 to 0.11.

First: CATAGGTCTTTTCCCGAG
Second: TTGTACATCACTGTAGCA
The remaining target (mRNA or protein) (fraction of control) of the first is higher: 0.52 for the first, 0.41 for the second.

First: ATGTTCTCCGTGTTGATA
Second: ACGACATCATCTTATCTC
The remaining target (mRNA or protein) (fraction of control) of the first is higher: 0.67 for the first, 0.39 for the second.

First: CGATTGGTCAGTCGATCT
Second: GCAAGCAGAATATCTTGT
The remaining target (mRNA or protein) (fraction of control) of the first is higher: no less than 1 for the first, 0.5 for the second.

Compared with AGTCCGCCATCTTGCCGC, TTGAGGTTGTCATGCAGA is lower in remaining target (mRNA or protein) (fraction of control): no less than 1 for the first, 0.73 for the second.

Going from AAAGTCGTATTCATGGAT to CGCGCCCAGCAGCAGGAT, the remaining target (mRNA or protein) (fraction of control) falls from no less than 1 to 0.75.

First: CGTAGAATTAAGATTGTT
Second: AACAGATCAAAGCCTGCA
The remaining target (mRNA or protein) (fraction of control) of the first is higher: no less than 1 for the first, 0.64 for the second.

First: CGGACCGCGACGGCAGGA
Second: TGAGTTGTCTCCCCAGGG
The remaining target (mRNA or protein) (fraction of control) of the first is lower: 0.58 for the first, no less than 1 for the second.

Compared with CATCTGCTTCAGGAAGGT, ACCCAGTTGAAATTCTCG is lower in remaining target (mRNA or protein) (fraction of control): 0.55 for the first, 0.43 for the second.

First: GAAATAGTCTTTGATGCT
Second: TCGAAACATTCAAACCAA
The remaining target (mRNA or protein) (fraction of control) of the first is higher: 0.61 for the first, 0.42 for the second.

CGAGACAGGCATTTGTCG and TATCCTTCACGTCGCGGA cannot be ordered by remaining target (mRNA or protein) (fraction of control): no less than 1 for the first, no less than 1 for the second.

Compared with AATATTTTACAGATTCAC, GGATCCCCTTCAAATTCT is lower in remaining target (mRNA or protein) (fraction of control): no less than 1 for the first, 0.72 for the second.

For TCGCCCGCGCCCAGCAGC, the remaining target (mRNA or protein) (fraction of control) was 0.31.
